We go through 25 compounds from US20250304567A1, “PYRROLIDIONE DERIVATIVES AS INHIBITORS OF NF KAPPA B INDUCING KINASE” (priority 2022, published 2025).

The target in assay [1] is Recombinant Human NF-kappaB-Inducing Kinase (NIK/MAP3K14) (Homo sapiens, UniProt Q99558). Briefly: Inhibition of auto-phosphorylation of recombinant human NIK/MAP3K14 activity (AlphaScreen). Type of assay: biochemical. The conditions noted are these: 5 μM ATP, 1 nM NIK, average if tested more than once. The procedure:
Assay 1: Inhibition of Auto-Phosphorylation of Recombinant Human NF-kappaB-Inducing Kinase (NIK/MAP3K14) Activity (AlphaScreen™)
NIK/MAP3K14 auto-phosphorylation activity was measured using the AlphaScreen™ (αscreen) format (Perkin Elmer). All compounds tested were dissolved in dimethyl sulfoxide (DMSO) and further dilutions were made in assay buffer. The final DMSO concentration was 0.7% (v/v) in assays. The assay buffer was 50 mM Tris pH 7.5 containing 1 mM EGTA (ethylene glycol tetraacetic acid), 1 mM DTT (dithiothreitol), 0.1 mM Na3VO4, 5 mM MgCl2, and 0.01% Tween®20. The assays were carried out in 384 well Proxiplates (Perkin Elmer). The incubations consisted of the compound, 5 μM Adenosine-5′-triphosphate (ATP), and 1 nM NIK/MAP3K14. Incubations were initiated by the addition of GST-tagged NIK/MAP3K14 enzyme, carried out for 2 h at 25° C. and terminated by addition of stop buffer containing anti-phospho-IKK Ser176/180 antibody. Protein A Acceptor and Glutathione-Donor beads were added before reading using an EnVision Multilabel Plate Reader (Perkin Elmer). The signal obtained in the wells was normalized using high (full enzyme activity, 0.7% DMSO) and low controls (no enzyme activity, 0.7% DMSO, no ATP). IC50's were determined by fitting a sigmoidal curve to % inhibition of control versus Log10 compound concentration.
A general note: Alpha assays give light when donor and acceptor beads are brought close together.

Assay [2] relates to p-IKKa levels in L363 (NIK translocated multiple myeloma) cells. Kind of assay: Effect of compounds on p-IKKa levels in L363 (NIK translocated multiple myeloma) cells (AlphaLISA SureFire Ultra p-IKKa Ser176/180). Type of assay: cell-based, human. Conditions: average if tested more than once, read-out: Assay 2 IC50. As for the experimental part: Assay 2: Effect of Compounds on p-IKKa Levels in L363 (NIK Translocated Multiple Myeloma) Cells
All compounds tested were dissolved and serially diluted in DMSO, 1:3 dilution for 11 points in an Echo compatible plate. 100% DMSO was added to columns 12 and 24 of the plate to serve as high and low signal controls. This compound plate was used to spot 20 nL of compound or DMSO into a Greiner 384 well TC plate (781080). The final DMSO concentration was 0.3% (v/v) in cell assays. Human L363 cells (ATCC) were cultured in RPM11640 medium supplemented with GlutaMax, non-essential amino acids, sodium pyruvate and 10% fetal bovine serum. Cells were routinely maintained at densities of 0.2×10^6 cells per ml-2×10^6 cells per mL at 37° C. in a humidified 5% CO2 atmosphere incubator. Cells were passaged twice a week splitting back to obtain the low density. The day before the assay, cells were washed twice in HBSS (Hank's Balanced Salt Solution), resuspended in Dulbecco's Modified Eagle Medium (DMEM)+0.5% IgG and protease free BSA (Jackson Immuno Research Laboratories), +/−250 ng/ml recombinant human B-cell activating factor (BAFF/BLyS/TNFSF13B) and incubated overnight at 37° C. in a humidified 5% CO2 atmosphere (bulk stimulation with or without BAFF). The next day, the cell concentration was adjusted to 1×10^7 cells/ml in DMEM+/−250 ng/ml BAFF+/−10 μM MG132 and plated at 10 μl/well into compound or DMSO spotted 384 well TC plates. Seeded cells were incubated at 37° C. in a humidified 5% CO2 atmosphere for 6 h. After 6 h, the plates were removed from the incubator and cell lysis was achieved by the addition of 2.5 μl 5× lysis buffer containing protease and phosphatase inhibitors, followed by shaking on a plate shaker at room temperature for 15 min. At the end of this incubation, lysed cells were sequentially treated and incubated with acceptor and donor bead mixes according to the manufacturer's protocol for a 1 plate/2-incubation suspension cell assay (AlphaLISA SureFire Ultra p-IKKa (Ser 176/180) Assay Kit (Perkin Elmer). Plates were read using an EnVision Multilabel Plate Reader (Perkin Elmer). Within an experiment, a concentration response curve for each compound was run in duplicate. The signal obtained in the test wells was normalized using high signal (BAFF stimulated cells, DMSO, MG132) and low signal (unstimulated cells, DMSO) controls. To determine the IC50, a sigmoidal curve was fitted to the plot of % inhibition versus Log10 compound concentration.

[3] abbreviates: Homo sapiens, L-363, p-IKKa levels in L363 cells.

One may read the IC50 as the concentration at which inhibition is half-maximal.

Molecules are shown by their SMILES. Where two headings read alike, the source gives them in different places. Where only a bound is given, the exact number is not on record here.

Chain of Recombinant Human NF-kappaB-Inducing Kinase (NIK/MAP3K14) (Q99558 whole entry): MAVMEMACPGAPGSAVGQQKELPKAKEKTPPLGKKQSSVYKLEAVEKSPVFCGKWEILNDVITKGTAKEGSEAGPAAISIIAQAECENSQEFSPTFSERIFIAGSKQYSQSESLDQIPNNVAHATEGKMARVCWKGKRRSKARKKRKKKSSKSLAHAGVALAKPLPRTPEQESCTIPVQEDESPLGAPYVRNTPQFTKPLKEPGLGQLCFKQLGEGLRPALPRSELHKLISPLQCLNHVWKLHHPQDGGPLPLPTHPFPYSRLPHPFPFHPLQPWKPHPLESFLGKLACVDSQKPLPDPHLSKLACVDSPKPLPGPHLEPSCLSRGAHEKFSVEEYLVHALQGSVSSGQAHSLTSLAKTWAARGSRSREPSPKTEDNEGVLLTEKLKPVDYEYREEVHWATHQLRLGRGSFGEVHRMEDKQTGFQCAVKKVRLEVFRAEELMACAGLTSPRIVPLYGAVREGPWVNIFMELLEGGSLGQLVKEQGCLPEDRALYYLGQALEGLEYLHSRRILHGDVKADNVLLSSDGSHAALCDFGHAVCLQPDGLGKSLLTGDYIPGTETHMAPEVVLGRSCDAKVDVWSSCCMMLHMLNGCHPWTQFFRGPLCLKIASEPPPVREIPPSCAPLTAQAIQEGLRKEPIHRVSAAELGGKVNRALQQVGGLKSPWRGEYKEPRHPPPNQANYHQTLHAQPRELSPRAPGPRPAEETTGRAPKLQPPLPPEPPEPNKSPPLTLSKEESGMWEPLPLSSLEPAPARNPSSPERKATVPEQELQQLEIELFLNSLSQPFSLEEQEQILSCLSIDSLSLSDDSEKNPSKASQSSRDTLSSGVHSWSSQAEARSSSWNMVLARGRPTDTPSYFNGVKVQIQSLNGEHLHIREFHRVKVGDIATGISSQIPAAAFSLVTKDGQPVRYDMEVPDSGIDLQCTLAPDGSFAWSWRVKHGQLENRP

Regarding `CC(Nc1nccc(-c2nc(-c3cccc(C4(O)CCN(C)C4=O)c3)cs2)n1)c1cc[nH]n1` (single isomer, unassigned) [Example 42], the values for the 50% inhibitory concentration (IC50) in assay [1] and in assay [2] (p-IKKa levels in L363 cells) were less than 100 nM and more than 501 nM, respectively.
As to `CN1CCC(O)(c2cncc(-c3csc(-c4ccnc(Nc5ccnn5C)n4)n3)c2)C1=O` (single isomer, unassigned) [Example 46, (R)-3-Hydroxy-1-methyl-3-(5-(2-(2-((1-methyl-1H-pyrazol-5-yl)amino)pyrimidin-4-yl)thiazol-4-yl)pyridin-3-yl)pyrrolidin-2-one or (S)-3-hydroxy-1-methyl-3-(5-(2-(2-((1-methyl-1H-pyrazol-5-yl)amino)pyrimidin-4-yl)thiazol-4-yl)pyridin-3-yl)pyrrolidin-2-one], the 50% inhibitory concentration (IC50) in assay [1] and in assay [2] (setting [3]) was less than 100 nM throughout.
On to `CC(Nc1nccc(-c2nc(-c3cccc(C4(O)CCN(C)C4=O)c3)cs2)n1)c1ccn(C)n1` (single isomer, unassigned) [Example 50], for which the IC50 was 100 to 500 nM in assay [1] and more than 501 nM in assay [2] (p-IKKa levels in L363 cells).
On to `CC(Nc1nccc(-c2nc(-c3cccc(C4(O)CCN(C)C4=O)c3)cs2)n1)c1ccn(C)n1` (single isomer, unassigned) [Example 51], for which the IC50 was less than 100 nM in assay [1] and 100 to 500 nM in assay [2] (p-IKKa levels in L363 cells).
`CN1CCC(O)(c2cc(C#N)cc(-c3csc(-c4ccnc(Nc5ccn(C)n5)n4)n3)c2)C1=O` (single isomer, unassigned) [Example 57, 3-(3-hydroxy-1-methyl-2-oxopyrrolidin-3-yl)-5-(2-(2-((1-methyl-1H-pyrazol-3-yl)amino)pyrimidin-4-yl)thiazol-4-yl)benzonitrile]: the values for the IC50 in assay [1] and in assay [2] (setting [3]) were less than 100 nM and more than 501 nM, respectively.
On to `CN1CCC(O)(c2cc(C#N)cc(-c3csc(-c4ccnc(Nc5ccn(C)n5)n4)n3)c2)C1=O` (single isomer, unassigned) [Example 58, 3-(3-hydroxy-1-methyl-2-oxopyrrolidin-3-yl)-5-(2-(2-((1-methyl-1H-pyrazol-3-yl)amino)pyrimidin-4-yl)thiazol-4-yl)benzonitrile], for which the IC50 in assay [1] and in assay [2] (p-IKKa levels in L363 cells) was more than 501 nM throughout.
For `CN1C(=O)[C@](O)(c2ccnc(-c3csc(-c4ccnc(Nc5ccn(C)n5)n4)n3)c2)C[C@H]1C(F)(F)F` (single isomer, unassigned) [Example 59], the figures for the half-maximal inhibitory concentration (IC50) in assay [1] and in assay [2] (setting [3]) were less than 100 nM and 100 to 500 nM, respectively.
For `CN1C(=O)[C@@](O)(c2ccnc(-c3csc(-c4ccnc(Nc5ccn(C)n5)n4)n3)c2)C[C@@H]1C(F)(F)F` (single isomer, unassigned) [Example 60], the half-inhibitory concentration (IC50) in assay [1] was 100 to 500 nM; in assay [2] (setting [3]), more than 501 nM.
Turning to `CN1C(=O)[C@](O)(c2cncc(-c3csc(-c4ccnc(Nc5ccn(C)n5)n4)n3)c2)C[C@H]1C(F)(F)F` (single isomer, unassigned) [Example 61], the concentration for half-maximal inhibition (IC50) in assay [1] is less than 100 nM; in assay [2] (setting [3]) it was 100 to 500 nM.
In the case of `CN1C(=O)[C@@](O)(c2cncc(-c3csc(-c4ccnc(Nc5ccn(C)n5)n4)n3)c2)C[C@@H]1C(F)(F)F` (single isomer, unassigned) [Example 62], the IC50 in assay [1] and in assay [2] (setting [3]) was more than 501 nM throughout.
Take `C[C@H](Nc1nccc(-n2ccc(-c3cccc([C@]4(O)CCN(C)C4=O)c3)n2)n1)c1ccnn1C` (single isomer, unassigned) [Example 91]: the values for the IC50 in assay [1] and in assay [2] (setting [3]) were less than 100 nM and 100 to 500 nM, respectively.
As for `C[C@@H](Nc1nccc(-n2ccc(-c3cccc([C@]4(O)CCN(C)C4=O)c3)n2)n1)c1ccnn1C` (single isomer, unassigned) [Example 92], the 50% inhibitory concentration (IC50) in assay [1] and in assay [2] (setting [3]) was less than 100 nM throughout.
Take `C[C@H](Nc1nccc(-n2ccc(-c3cccc([C@]4(O)CCN(C)C4=O)c3)n2)n1)c1cnn(C)c1` (single isomer, unassigned) [Example 93]: the 50% inhibitory concentration (IC50) in assay [1] was less than 100 nM; in assay [2] (setting [3]), 100 to 500 nM.
For the compound `C[C@@H](Nc1nccc(-n2ccc(-c3cccc([C@]4(O)CCN(C)C4=O)c3)n2)n1)c1cnn(C)c1` (single isomer, unassigned) [Example 94], the IC50 in assay [1] is less than 100 nM; in assay [2] (setting [3]), more than 501 nM.
For `C[C@H](Nc1nccc(-c2nc(-c3cccc([C@]4(O)CCN(C)C4=O)c3)cs2)n1)c1ccnn1C` (single isomer, unassigned) [Example 126], the values for the IC50 in assay [1] and in assay [2] (setting [3]) were less than 100 nM and 100 to 500 nM, respectively.
As to `C[C@@H](Nc1nccc(-c2nc(-c3cccc([C@]4(O)CCN(C)C4=O)c3)cs2)n1)c1ccnn1C` (single isomer, unassigned) [Example 127], the values for the IC50 in assay [1] and in assay [2] (setting [3]) were less than 100 nM and 100 to 500 nM, respectively.
On to `COC[C@H](Nc1nccc(-c2nc(-c3cccc([C@]4(O)CCN(C)C4=O)c3)cs2)n1)c1ccnn1C` (single isomer, unassigned) [Example 129], for which the 50% inhibitory concentration (IC50) in assay [1] is less than 100 nM; in assay [2] (setting [3]), 100 to 500 nM.
With `COC[C@@H](Nc1nccc(-c2nc(-c3cccc([C@]4(O)CCN(C)C4=O)c3)cs2)n1)c1ccnn1C` (single isomer, unassigned) [Example 130], the half-inhibitory concentration (IC50) in assay [1] was less than 100 nM; in assay [2] (setting [3]), 100 to 500 nM.
On to `C[C@H](Nc1nccc(-c2csc(-c3cccc([C@]4(O)CCN(C)C4=O)c3)n2)n1)c1cncn1C` (single isomer, unassigned) [Example 133], for which the IC50 is less than 100 nM in assay [1] and more than 501 nM in assay [2] (setting [3]).
Consider `C[C@@H](Nc1nccc(-c2csc(-c3cccc([C@]4(O)CCN(C)C4=O)c3)n2)n1)c1cncn1C` (single isomer, unassigned) [Example 134], for which the IC50 in assay [1] and in assay [2] (setting [3]) was more than 501 nM each time.
With `CN1CC[C@@](O)(c2cccc(-c3nc(-c4ccnc(N[C@@H]5CCCc6cn[nH]c65)n4)cs3)c2)C1=O` (single isomer, unassigned) [Example 135], the concentration for half-maximal inhibition (IC50) in assay [1] and in assay [2] (setting [3]) was more than 501 nM in each case.
For `CN1CC[C@@](O)(c2cccc(-c3nc(-c4ccnc(N[C@H]5CCCc6cn[nH]c65)n4)cs3)c2)C1=O` (single isomer, unassigned) [Example 136], the IC50 in assay [1] is 100 to 500 nM; in assay [2] (setting [3]) it was more than 501 nM.
As for `C[C@H](Nc1nccc(-c2csc(-c3cccc([C@]4(O)CCN(C)C4=O)c3)n2)n1)c1cn[nH]c1` (single isomer, unassigned) [Example 138], the half-maximal inhibitory concentration (IC50) in assay [1] is less than 100 nM; in assay [2] (setting [3]) it was more than 501 nM.
`C[C@@H](Nc1nccc(-c2csc(-c3cccc([C@]4(O)CCN(C)C4=O)c3)n2)n1)c1cn[nH]c1` (single isomer, unassigned) [Example 139]: the concentration for half-maximal inhibition (IC50) in assay [1] and in assay [2] (setting [3]) was less than 100 nM each time.
Consider `CN1CC[C@@](O)(c2ccnc(-c3csc(-c4ccnc(Nc5ccnn5C)n4)n3)c2)C1=O` (single isomer, unassigned) [Example 144, (R)-3-hydroxy-1-methyl-3-(2-(2-(2-((1-methyl-1H-pyrazol-5-yl)amino)pyrimidin-4-yl)thiazol-4-yl)pyridin-4-yl)pyrrolidin-2-one or (S)-3-hydroxy-1-methyl-3-(2-(2-(2-((1-methyl-1H-pyrazol-5-yl)amino)pyrimidin-4-yl)thiazol-4-yl)pyridin-4-yl)pyrrolidin-2-one], for which the concentration for half-maximal inhibition (IC50) was less than 100 nM in assay [1] and 100 to 500 nM in assay [2] (setting [3]).
